ChEMBL document CHEMBL1201862, “PubChem BioAssay data set” (2004)
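Five concentrations, 48 hours, 96-well plates. GI50 marks 50% less growth.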 Calls of active or inactive are those of the source. Rule as the data show it: active = GI50 up to about 1.1 µM and inactive = higher.

What was measured:
Assay in all cases: DTP human tumour cell line panel, 48 h
[1] = system: HCT-15
[2] = system: HCC 2998
[3] = system: SK-MEL-2
[4] = system: KM-20L2
[5] = system: DMS-273
[6] = system: T47D
[7] = system: SNB-78
[8] = system: NCI-H522
[9] = system: NCI-H226
[10] = system: DLD-1
[11] = system: HOP-18
[12] = system: OVCAR-5
[13] = system: SF-539
[14] = system: Hs-578T
[15] = system: DU-145
[16] = system: NCI-H460
[17] = system: XF498
[18] = system: A549
[19] = system: MDA-MB-435
[20] = system: LXFL 529
[21] = system: SNB-75
[22] = system: HOP-92
[23] = system: UACC-257
[24] = system: KM12
[25] = system: HCT-116
[26] = system: U-251
[27] = system: LOX IMVI
[28] = system: TK-10
[29] = system: SK-MEL-28
[30] = system: CAKI-1
[31] = system: SNB-19
[32] = system: COLO 205
[33] = system: HL-60
[34] = system: SW-620
[35] = system: NCI-H23
[36] = system: SF-295
[37] = system: OVCAR-8
[38] = system: M19-MEL
[39] = system: EKVX
[40] = system: 786-0
[41] = system: M14
[42] = system: RXF 393
[43] = system: HOP-62
[44] = system: SN12C
[45] = system: Malme-3M
[46] = system: ACHN
[47] = system: OVCAR-4
[48] = system: HT-29
[49] = system: OVCAR-3
[50] = system: UO-31
[51] = system: SF-268
[52] = system: A498
[53] = system: SR
[54] = system: MOLT-4
[55] = system: SK-MEL-5
[56] = system: UACC-62
[57] = system: SK-OV-3
[58] = system: CCRF-CEM
[59] = system: IGROV-1
[60] = system: DMS-114

`O=C1C(Cl)=C(N2CCN(CCOCCO)CC2)C(=O)c2c(O)ccc(O)c21` was tested, and the GI50 [1] was 0.292 µM, the GI50 [2] was 1.93 µM (inactive) and the GI50 [3] was 0.404 µM (active). The GI50 [4] was 0.716 µM (active), the GI50 [5] was 1.05 µM (active) and the GI50 [6] was 0.438 µM (active). For the same molecule, the GI50 [7] was 0.363 µM (active), the GI50 [8] was 0.174 µM (active) and the GI50 [9] was 1.99 µM (inactive). For the same molecule, the GI50 [10] was 0.195 µM (active), the GI50 [11] was 1.38 µM (inactive) and the GI50 [12] was 1.79 µM (inactive). The GI50 [13] was 1.3 µM (inactive), the GI50 [14] was 2.64 µM (inactive) and the GI50 [15] was 1.85 µM (inactive). For the same molecule, the GI50 [16] was 3.1 µM (inactive), the GI50 [17] was 0.557 µM (active) and the GI50 [18] was 2.71 µM (inactive). The GI50 [19] was 0.295 µM (active), the GI50 [20] was 0.224 µM (active) and the GI50 [21] was 1.41 µM (inactive). For the same molecule, the GI50 [22] was 0.231 µM (active).
`CCOC(=O)CCc1c(C)c2c(OC)cc(OC)cc2oc1=O` was tested, and the GI50 [23] was > 100 µM (inactive), the GI50 [24] was > 100 µM (inactive) and the GI50 [25] was > 100 µM (inactive). The GI50 [2] was > 100 µM (inactive), the GI50 [26] was > 100 µM (inactive) and the GI50 [27] was > 100 µM (inactive). For the same molecule, the GI50 [3] was > 100 µM (inactive), the GI50 [28] was > 100 µM (inactive) and the GI50 [29] was > 100 µM (inactive). The GI50 [30] was 72.3 µM (inactive), the GI50 [4] was > 100 µM (inactive) and the GI50 [5] was 41.8 µM (inactive). For the same molecule, the GI50 [7] was > 100 µM (inactive), the GI50 [8] was > 100 µM (inactive) and the GI50 [9] was 25.5 µM (inactive). For the same molecule, the GI50 [31] was > 100 µM (inactive), the GI50 [32] was > 100 µM (inactive) and the GI50 [10] was 91.6 µM (inactive). For the same molecule, the GI50 [33] was 88.3 µM (inactive), the GI50 [11] was 32.1 µM (inactive) and the GI50 [12] was 59.3 µM (inactive). The GI50 [34] was > 100 µM (inactive), the GI50 [35] was > 100 µM (inactive) and the GI50 [36] was > 100 µM (inactive). For the same molecule, the GI50 [13] was > 100 µM (inactive), the GI50 [37] was > 100 µM (inactive) and the GI50 [38] was > 100 µM (inactive). For the same molecule, the GI50 [39] was 54.7 µM (inactive), the GI50 [40] was 34.1 µM (inactive) and the GI50 [41] was > 100 µM (inactive). For the same molecule, the GI50 [42] was 33.9 µM (inactive), the GI50 [43] was > 100 µM (inactive) and the GI50 [44] was 79.4 µM (inactive). For the same molecule, the GI50 [45] was 51.3 µM (inactive), the GI50 [46] was 42.4 µM (inactive) and the GI50 [47] was > 100 µM (inactive). The GI50 [16] was > 100 µM (inactive), the GI50 [48] was 91 µM (inactive) and the GI50 [17] was 35.2 µM (inactive). The GI50 [49] was > 100 µM (inactive), the GI50 [18] was > 100 µM (inactive) and the GI50 [20] was 62.5 µM (inactive). The GI50 [50] was 65.9 µM (inactive), the GI50 [51] was 34.4 µM (inactive) and the GI50 [21] was 21.5 µM (inactive). For the same molecule, the GI50 [22] was 22.3 µM (inactive).
`O=C(Cc1nc2ccccc2s1)C(=O)Nc1cccc(C(F)(F)F)c1` was tested, and the GI50 [52] was > 100 µM (inactive), the GI50 [1] was over 100 µM and the GI50 [23] was > 100 µM (inactive). For the same molecule, the GI50 [24] was > 100 µM (inactive), the GI50 [25] was > 100 µM (inactive) and the GI50 [2] was > 100 µM (inactive). The GI50 [26] was > 100 µM (inactive), the GI50 [3] was > 100 µM (inactive) and the GI50 [28] was > 100 µM (inactive). For the same molecule, the GI50 [53] was > 100 µM (inactive), the GI50 [29] was > 100 µM (inactive) and the GI50 [30] was > 100 µM (inactive). The GI50 [4] was > 100 µM (inactive), the GI50 [5] was > 100 µM (inactive) and the GI50 [7] was > 100 µM (inactive). For the same molecule, the GI50 [8] was > 100 µM (inactive), the GI50 [9] was > 100 µM (inactive) and the GI50 [31] was > 100 µM (inactive). The GI50 [54] was > 100 µM (inactive), the GI50 [32] was > 100 µM (inactive) and the GI50 [10] was > 100 µM (inactive). The GI50 [55] was > 100 µM (inactive), the GI50 [56] was > 100 µM (inactive) and the GI50 [33] was > 100 µM (inactive). The GI50 [11] was > 100 µM (inactive), the GI50 [34] was > 100 µM (inactive) and the GI50 [35] was > 100 µM (inactive). The GI50 [36] was > 100 µM (inactive), the GI50 [13] was > 100 µM (inactive) and the GI50 [37] was > 100 µM (inactive). The GI50 [38] was > 100 µM (inactive), the GI50 [57] was > 100 µM (inactive) and the GI50 [39] was > 100 µM (inactive). For the same molecule, the GI50 [58] was > 100 µM (inactive), the GI50 [40] was > 100 µM (inactive) and the GI50 [41] was > 100 µM (inactive). For the same molecule, the GI50 [42] was > 100 µM (inactive), the GI50 [43] was > 100 µM (inactive) and the GI50 [44] was > 100 µM (inactive). The GI50 [45] was > 100 µM (inactive), the GI50 [46] was > 100 µM (inactive) and the GI50 [47] was > 100 µM (inactive). For the same molecule, the GI50 [16] was > 100 µM (inactive), the GI50 [48] was > 100 µM (inactive) and the GI50 [49] was > 100 µM (inactive). For the same molecule, the GI50 [59] was > 100 µM (inactive), the GI50 [18] was > 100 µM (inactive) and the GI50 [20] was > 100 µM (inactive). For the same molecule, the GI50 [50] was > 100 µM (inactive), the GI50 [51] was > 100 µM (inactive) and the GI50 [21] was > 100 µM (inactive). For the same molecule, the GI50 [22] was > 100 µM (inactive) and the GI50 [60] was > 100 µM (inactive).
